Where two headings read alike, the source gives them in different places.
Tests used:
Format in all cases: cell-based
[1] = molecular target: T1, hGABAA α1β3γ2 (Homo sapiens, UniProt P14867+P18507+P28472); assay: hGABAA IonFlux HT PAM Assay, α1β3γ2; conditions: for Mean Maximal Effect (% of Control): normalized to baseline peak current induced by EC20 GABA (1 μM) for 2 seconds
Source text: (§1) Ligand-gated ion channels targeted were hGABAA α1β3γ2 and hGABAA α2β3γ2.
(§2) Electrophysiological assays conducted to profile nine (9) compounds for activities on the on channel targets listed above for Positive Allosteric Modulator (PAM) activities using the IonFlux HT electrophysiological platform.
The parameters measured are described in the Data Analysis section.
(§3) All wells included a final DMSO concentration of 0.33% including all control wells.
(§4) All recordings were obtained from a holding potential of −60 mV. The compound addition sequence that was used for all additions was the same for all assays. […] The process was repeated with the next ascending concentration of test compound (FIG. 1).
(§5) All data were first exported to an Excel compatible data file and then analyzed using Graph Pad Prism software.

[2] = molecular target: T1, hGABAA α1β3γ2; assay: hGABAA α1β3γ2 IonFlux HT Agonist Assay; design: activation of hGABAA α1β3γ2 ion channel currents / activation: dose or concentration left out as unconfirmed
Protocol: Ligand-gated ion channel targets were hGABAA α2β3γ2 and hGABAA α1β3γ2. Electrophysiological assays conducted to profile two compounds for agonist activities on hGABAA α2β3γ2 and seven compounds for agonist activities on hGABAA α1β3γ2 using the IonFlux HT electrophysiological platform.
The parameters measured are described in the Data Analysis section. […] Note: The test compounds was applied over two (2) ‘experimental patterns’ in increasing concentrations.
The supplied compound was prepared in DMSO to concentrations that were 300× the final assay concentrations. Aliquots were taken out and diluted 300× into external buffer to give the final assay concentration. At wells included a final DMSO concentration of 0.33% including all control wets.
All recordings were obtained from a holding potential of −60 mV. The compound addition sequence that was used for all additions was the same for all assays. […] Each test concentration of compound was applied for 2 seconds followed by 60 seconds wash. The process was repeated with the next ascending concentration of test compound. The test compounds were applied over two (2) ‘experimental patterns’ in increasing concentrations (FIG. 11).
AM data were first exported to an Excel compatible data file and then analyzed using Graph Pad Prism software.

[3] = molecular target: hGABAA α2β3γ2 (Homo sapiens, UniProt P18507+P28472+P47869); assay: hGABAA IonFlux HT PAM Assay, α2β3γ2; conditions: for Mean Maximal Effect (% of Control): normalized to baseline peak current induced by EC20 GABA (0.8 μM) for 2 seconds; for EC50: read-out: Estimated EC50
Source text: as §1, §2
The parameters measured are described in the Data Analysis section. […] Open circles represent data that has been excluded from the curve fitting. Where no curve fit was possible, n/c (not calculable) is listed.
as §3, §4, §5

[4] = read-out: Normalized Percentage Activation Mean
[5] = positive modulation of EC20 GABA current
[6] = agonist activation of channel currents, read-out: Estimated EC50

T1 sequence (P14867 28-456): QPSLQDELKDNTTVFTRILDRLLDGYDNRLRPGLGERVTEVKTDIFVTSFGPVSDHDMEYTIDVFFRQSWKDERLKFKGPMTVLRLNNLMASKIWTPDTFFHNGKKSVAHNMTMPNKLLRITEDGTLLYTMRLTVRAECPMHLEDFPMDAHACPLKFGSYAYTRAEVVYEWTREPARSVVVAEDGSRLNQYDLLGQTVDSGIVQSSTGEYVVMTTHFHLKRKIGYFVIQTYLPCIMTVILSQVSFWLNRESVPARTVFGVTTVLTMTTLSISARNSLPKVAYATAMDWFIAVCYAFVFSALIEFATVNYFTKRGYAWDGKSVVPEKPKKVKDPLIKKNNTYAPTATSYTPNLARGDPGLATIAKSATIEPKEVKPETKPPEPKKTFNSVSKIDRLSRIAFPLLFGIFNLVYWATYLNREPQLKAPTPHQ
T1 sequence (P28472 26-473): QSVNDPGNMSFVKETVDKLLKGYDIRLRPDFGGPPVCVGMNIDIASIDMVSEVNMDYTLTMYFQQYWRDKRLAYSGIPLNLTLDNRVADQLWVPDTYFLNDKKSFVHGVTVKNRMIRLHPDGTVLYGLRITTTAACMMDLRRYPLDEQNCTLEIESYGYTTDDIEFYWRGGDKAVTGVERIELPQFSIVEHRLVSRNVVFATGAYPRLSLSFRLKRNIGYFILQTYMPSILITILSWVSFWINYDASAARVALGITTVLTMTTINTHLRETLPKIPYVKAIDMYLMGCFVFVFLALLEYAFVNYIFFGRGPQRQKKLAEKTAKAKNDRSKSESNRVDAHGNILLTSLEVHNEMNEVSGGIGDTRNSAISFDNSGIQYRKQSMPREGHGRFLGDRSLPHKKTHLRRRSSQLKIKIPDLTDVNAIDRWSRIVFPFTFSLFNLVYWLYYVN
T1 sequence (P18507 40-475): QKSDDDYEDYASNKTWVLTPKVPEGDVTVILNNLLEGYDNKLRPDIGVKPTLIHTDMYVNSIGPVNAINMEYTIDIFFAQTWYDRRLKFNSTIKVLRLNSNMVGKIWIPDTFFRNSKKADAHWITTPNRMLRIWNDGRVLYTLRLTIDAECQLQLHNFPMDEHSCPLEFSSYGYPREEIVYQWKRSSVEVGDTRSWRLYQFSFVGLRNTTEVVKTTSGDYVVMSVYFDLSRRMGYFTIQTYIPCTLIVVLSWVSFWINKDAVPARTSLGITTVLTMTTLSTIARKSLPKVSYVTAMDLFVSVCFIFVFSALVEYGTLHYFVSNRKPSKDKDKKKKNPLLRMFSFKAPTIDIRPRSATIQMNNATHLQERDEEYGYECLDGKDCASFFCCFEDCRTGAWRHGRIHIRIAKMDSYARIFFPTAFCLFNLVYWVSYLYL
Chain of hGABAA α2β3γ2 (P47869 29-451): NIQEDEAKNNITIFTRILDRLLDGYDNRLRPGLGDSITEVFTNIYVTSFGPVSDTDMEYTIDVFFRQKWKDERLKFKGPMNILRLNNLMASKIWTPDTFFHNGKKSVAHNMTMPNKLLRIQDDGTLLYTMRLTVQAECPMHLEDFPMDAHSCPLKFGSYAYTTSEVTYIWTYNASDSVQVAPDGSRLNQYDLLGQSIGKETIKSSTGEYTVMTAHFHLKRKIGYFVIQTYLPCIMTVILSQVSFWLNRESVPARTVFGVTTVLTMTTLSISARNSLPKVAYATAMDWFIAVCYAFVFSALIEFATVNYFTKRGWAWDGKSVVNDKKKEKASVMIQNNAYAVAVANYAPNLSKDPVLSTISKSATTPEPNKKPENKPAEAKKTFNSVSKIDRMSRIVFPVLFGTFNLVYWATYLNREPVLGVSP
Chain of hGABAA α2β3γ2 (P28472 26-473): as the sequence (P28472 26-473) above
Chain of hGABAA α2β3γ2 (P18507 40-475): as the sequence (P18507 40-475) above

Compound	EC50 ([1]; Estimated EC50, positive modulation of EC20 GABA current)	Mean Maximal Effect (% of Control) [1]	EC50 [2]	activation of hGABAA α1β3γ2 ion channel currents [2]	activation [2, 4]	activation at 0.3 µM [2, 4]	activation at 1 µM [2, 4]	activation at 3 µM [2, 4]	activation at 10 µM [2, 4]	activation at 30 µM [2, 4]	activation at 100 µM [2, 4]	activation at 300 µM [2, 4]	Mean Maximal Effect (% of Control) [3]	EC50 [3, 5]	EC50 ([1]; read-out: Estimated EC50)	EC50 [2, 6]	EC50 [3]	Estimated EC50 [1, 5]	Estimated EC50 [3, 5]	activation at 10000 µM [2, 4]
CCCN(CCNC)C(=O)Cc1c(-c2ccc(Cl)cc2)nc2ccc(Cl)cn12 [Compound 3]	0.081 µM	331 % of Control	> 1000 µM	did not activate	3.53%	1.99%	1.9%	2.32%	6.3%	2.98%	3.63%	8.78%	240 % of Control	1.1 µM						
CCCN(CCNC)C(=O)Cc1c(-c2ccc(C)cc2)nc2ccc(C)cn12 [Compound 2]		354 % of Control		did not activate	3.48%	2.17%	1.99%	2.79%	5.37%	5.93%	7.1%	3.63%	248 % of Control		0.446 µM	> 1000 µM	2 µM			
CN(C)CCN(C)C(=O)CC1c2nccnc2C(=O)N1c1ccc(Cl)cn1 (centres unmarked) [Compound 6]		130 % of Control		did not activate	2.08%	1.59%	2.06%	1.9%	1.89%	1.74%	1.95%	2.19%	122 % of Control			> 1000 µM		n/c	n/c	
CCN(CCNC)C(=O)CC1c2nccnc2C(=O)N1c1ccc(Cl)cn1 (centres unmarked) [Compound 5]		136 % of Control		did not activate		2.54%	2.02%	2.28%	2.45%	3.08%	3.75%	2.7%	126 % of Control		3.16 µM	> 1000 µM	8.7 µM			2.38%
